Laboratory results from patent US20190375708A1 (VenatoRx Pharmaceuticals, Inc., priority 2018, published 2019).

Legend:
[1] = In vitro cytotoxicity assay (MTT cell viability) in HepG2 cells; format: cell-based, human; settings: human
Procedure: To evaluate antiviral selectivity, the cytotoxic activity of each compound was determined using a standard cell viability assay performed on the parental HepG2 cell line. Cell viability was determined by measuring the conversion of 3-(4,5-dimethylthiazol-2-yl)-2,5-diphenyltetrazolium bromide (MTT) to the insoluble formazan salt crystal that occurs in live cells. Briefly, HepG2 cells were seeded in 96-well plates at a density of 20,000 cells per well in EMEM+10% FBS (complete growth medium) and allowed to adhere overnight in a 37° C., 5% CO2 humidified incubator. The next day, test agents were prepared by performing 8 half-log10 serial dilutions in 100% DMSO at 200× the final desired concentration in the assay. Compounds were tested over a range of concentrations from 30 μM to 1.0 nM in the assay. HepG2 cells were incubated in the presence of various concentrations of CAMs for 7 days in a 37° C., 5% CO2 humidified incubator. At the completion of the 7-day incubation period, MTT reagent was added to each well and the mixture was incubated for an additional 3-4 hours. At the completion of the incubation period, all wells were aspirated to remove the culture medium. The formazan crystals were solubilized from the cell monolayers with 100% DMSO. Plates were briefly mixed on an orbital shaker and absorbance was measured at 492 nm using a Perkin-Elmer EnVision multi-label plate reader. All absorbance values were converted to a percentage of the signal obtained from the vehicle treated controls. Absorbance values at 492 nm are directly proportional to the number of viable cells present in the sample. A CC50 value (cytotoxic concentration that results in loss of 50% cell viability) was calculated from the dose-response curve by 4-parameter, non-linear regression analysis using the GraphPad Prism software. The positive control compound, staurosporine, reduced the viability of HepG2 cells in a dose-dependent manner (CC50=100 nM).

[2] = tested on: HBV replication in HepAD38 cells; assay: Anti-HBV replication assay in HepAD38 cells (QPCR of extracellular HBV DNA); format: cell-based, HBV (genotype D, serotype ayw); settings: Hepatitis B virus, 168 h, 7 days incubation, extracellular HBV DNA by QPCR, read-out: Anti-HBV EC50
Procedure: The anti-HBV activity of the Capsid Assembly Modulators (CAMs) was evaluated in a cell based assay utilizing the human hepatoma cell line HepAD38 (Ladner, S K., et al., 1998). HepAD38 cells were derived from the parental line, HepG2, that were stably transfected with a construct containing an HBV genome (genotype D, serotype ayw) under the control of a tetracycline repressible CMV promoter. Upon removal of tetracycline, viral pre-genomic RNA (pgRNA) and mRNAs are expressed and infectious viral particles are assembled and secreted into the culture medium providing a reliable, robust system to measure multiple steps of the HBV life cycle. Disruption of capsid formation results in reduced levels of DNA-containing virus particles that are released into the culture supernatant. To quantify the effect of CAMs on HBV replication, we developed a sensitive QPCR-based assay that measures extracellular HBV DNA levels upon treatment of HepAD38 cells with various concentrations of test compounds.
HepAD38 cells were maintained in DMEM/F12 medium containing 10% FBS, 400 μg/mL G418 and 0.3 μg/mL tetracycline (tet+ media) to maintain repression of HBV replication. To evaluate each compound, HepAD38 cells were seeded into 24-well collagen coated culture plates (Corning BioCoat) at a density of 200,000 cells per well in 1 mL of medium without tetracycline (tet-media) and allowed to adhere overnight at 37° C., 5% CO2 in a humidified incubator. The following day, media was refreshed and a dose range of each compound was prepared by performing 1 log10 serial dilutions in 100% DMSO at 200× the desired assay concentration. Dilutions were then added to the cells resulting in a final dose range of 1 μM to 10 μM and the plates were returned to the incubator. Following 7 days of incubation, culture supernatants were harvested and HBV DNA levels were evaluated by QPCR and compared to the vehicle treated control wells (i.e. DMSO alone).
To quantify HBV DNA levels, cell culture supernatants were diluted 1:10 in sterile, nuclease-free water (Gibco). The diluted supernatants were subsequently added to a PCR master mix containing 1× Roche Light Cycler Master Mix, 0.5 μM forward primer, 0.5 μM reverse primer (Fwd: 5′-[…] (SEQ ID NO 1); Rev: 5′-[…] (SEQ ID NO 2)), 0.2 μM Roche Universal Probe Library Probe 25. The volume was brought to 20 μL with nuclease-free water and amplification of the HBV target sequence was performed using a Roche LightCycler 480 QPCR instrument. PCR extended out to 45 cycles with each cycle consisting of a denaturation step at 95° C. for 10 sec., followed by an annealing step at 60° C. for 10 sec. and a brief extension step at 72° C. for 1 sec.
Extracellular HBV DNA levels, expressed in copies/mL, were determined by comparison to a standard curve (10^2-10^9 copies/mL) using the Roche LightCycler analysis software. These values were subsequently converted to percent inhibition of HBV replication by dividing the HBV DNA levels in the experimental samples with those obtained from the vehicle control (˜1-2×10^5 copies/mL). Potency, expressed as an EC50 (the effective concentration required to inhibit 50% of HBV replication), was calculated from the dose-response curve using a 4-parameter non-linear regression analysis (GraphPad Prism). The nucleoside analog inhibitor entecavir was used as a positive control to validate each assay run. The EC50 value of entecavir in the HepAD38 assay was 0.5 nM, as previously reported in the literature.

Row | SMILES | CC50 at 7 days [1] [µM] | EC50 [2] [nM]
1 | Cc1cc(NC(=O)c2c(C)c(C(=O)C(=O)NC34CC5CC(CC3C5)C4)n(C)c2C)ccc1F [Example 18, N-(4-fluoro-3-methylphenyl)-5-(2-(((2R,3as,5S,6as)-hexahydro-2,5-methanopentalen-3a(1H)-yl)amino)-2-oxoacetyl)-1,2,4-trimethyl-1H-pyrrole-3-carboxamide] | > 30 | < 50
2 | Cc1cc(NC(=O)c2c(C)c(C(=O)C(=O)NC3CCc4nc(N)sc4C3)n(C)c2C)ccc1F (centres unmarked) [Example 20, 5-(2-((2-amino-4,5,6,7-tetrahydrobenzo[d]thiazol-6-yl)amino)-2-oxoacetyl)-N-(4-fluoro-3-methylphenyl)-1,2,4-trimethyl-1H-pyrrole-3-carboxamide] | 0.5 to 4.99 | < 50
3 | Cn1cc(C(=O)Nc2ccc(F)c(Cl)c2)cc1C(=O)C(=O)NOC(C)(C)C [Example 21, 5-(2-(tert-butoxyamino)-2-oxoacetyl)-N-(3-chloro-4-fluorophenyl)-1-methyl-1H-pyrrole-3-carboxamide] | > 30 | 50 to 499
4 | Cc1cc(NC(=O)c2c(C)c(C(=O)C(=O)NC(C)(C)C(=O)OC(C)(C)C)n(C)c2C)ccc1F [Example 22, tert-butyl 2-(2-(4-((4-fluoro-3-methylphenyl)carbamoyl)-1,3,5-trimethyl-1H-pyrrol-2-yl)-2-oxoacetamido)-2-methylpropanoate] | > 30 | < 50
5 | Cc1cc(NC(=O)c2c(C)c(C(=O)C(=O)N[C@H](C(=O)OC(C)(C)C)C(C)(C)C)n(C)c2C)ccc1F [Example 23, tert-butyl (S)-2-(2-(4-((4-fluoro-3-methylphenyl)carbamoyl)-1,3,5-trimethyl-1H-pyrrol-2-yl)-2-oxoacetamido)-3,3-dimethylbutanoate] | > 30 | 50 to 499
6 | COC(=O)[C@H](NC(=O)C(=O)c1c(C)c(C(=O)Nc2ccc(F)c(C)c2)c(C)n1C)C(C)(C)C [Example 24, methyl (R)-2-(2-(4-((4-fluoro-3-methylphenyl)carbamoyl)-1,3,5-trimethyl-1H-pyrrol-2-yl)-2-oxoacetamido)-3,3-dimethylbutanoate] | > 30 | < 50
7 | CCOC(=O)[C@H](CO)NC(=O)C(=O)c1c(C)c(C(=O)Nc2ccc(F)c(C)c2)c(C)n1C [Example 25, ethyl (2-(4-((4-fluoro-3-methylphenyl)carbamoyl)-1,3,5-trimethyl-1H-pyrrol-2-yl)-2-oxoacetyl)-L-serinate] | > 30 | 50 to 499
8 | CCOC(=O)[C@@H](CO)NC(=O)C(=O)c1c(C)c(C(=O)Nc2ccc(F)c(C)c2)c(C)n1C [Example 26, ethyl (2-(4-((4-fluoro-3-methylphenyl)carbamoyl)-1,3,5-trimethyl-1H-pyrrol-2-yl)-2-oxoacetyl)-D-serinate] | > 30 | < 50
9 | COC(=O)[C@@H](NC(=O)C(=O)c1c(C)c(C(=O)Nc2ccc(F)c(C)c2)c(C)n1C)[C@@H](C)O [Example 27, methyl (2-(4-((4-fluoro-3-methylphenyl)carbamoyl)-1,3,5-trimethyl-1H-pyrrol-2-yl)-2-oxoacetyl)-L-threoninate] | > 30 | > 1000
10 | COC(=O)[C@H](NC(=O)C(=O)c1c(C)c(C(=O)Nc2ccc(F)c(C)c2)c(C)n1C)[C@H](C)O [Example 28, methyl (2-(4-((4-fluoro-3-methylphenyl)carbamoyl)-1,3,5-trimethyl-1H-pyrrol-2-yl)-2-oxoacetyl)-D-threoninate] | > 30 | < 50
11 | Cc1cc(NC(=O)c2c(C)c(C(=O)C(=O)NC(C)(C)C(=O)O)n(C)c2C)ccc1F [Example 29, 2-(2-(4-((4-fluoro-3-methylphenyl)carbamoyl)-1,3,5-trimethyl-1H-pyrrol-2-yl)-2-oxoacetamido)-2-methylpropanoic acid] | > 30 | 500 to 1000
12 | Cc1cc(NC(=O)c2c(C)c(C(=O)C(=O)N[C@H](C(=O)O)C(C)(C)C)n(C)c2C)ccc1F [Example 30, (S)-2-(22-(4-((4-fluoro-3-methylphenyl)carbamoyl)-1,3,5-trimethyl-1H-pyrrol-2-yl)-2-oxoacetamido)-3,3-dimethylbutanoic acid] | > 30 | > 1000
13 | Cc1cc(NC(=O)c2c(C)c(C(=O)C(=O)N[C@@H](C(=O)O)C(C)(C)C)n(C)c2C)ccc1F [Example 31, (R)-2-(2-(4-((4-fluoro-3-methylphenyl)carbamoyl)-1,3,5-trimethyl-1H-pyrrol-2-yl)-2-oxoacetamido)-3,3-dimethylbutanoic acid] | > 30 | 50 to 499
14 | Cc1cc(NC(=O)c2c(C)c(C(=O)C(=O)N[C@@H](CO)C(=O)O)n(C)c2C)ccc1F [Example 32, (2-(4-((4-fluoro-3-methylphenyl)carbamoyl)-1,3,5-trimethyl-1H-pyrrol-2-yl)-2-oxoacetyl)-L-serine] | > 30 | > 1000
15 | Cc1cc(NC(=O)c2c(C)c(C(=O)C(=O)N[C@H](CO)C(=O)O)n(C)c2C)ccc1F [Example 33, (2-(4-((4-fluoro-3-methylphenyl)carbamoyl)-1,3,5-trimethyl-1H-pyrrol-2-yl)-2-oxoacetyl)-D-serine] | > 30 | > 1000
16 | Cc1cc(NC(=O)c2c(C)c(C(=O)C(=O)N[C@H](C(=O)O)[C@@H](C)O)n(C)c2C)ccc1F [Example 34, (2-(4-((4-fluoro-3-methylphenyl)carbamoyl)-1,3,5-trimethyl-1H-pyrrol-2-yl)-2-oxoacetyl)-L-threonine] | > 30 | > 1000
17 | Cc1cc(NC(=O)c2c(C)c(C(=O)C(=O)N[C@@H](C(=O)O)[C@H](C)O)n(C)c2C)ccc1F [Example 35, (2-(4-((4-fluoro-3-methylphenyl)carbamoyl)-1,3,5-trimethyl-1H-pyrrol-2-yl)-2-oxoacetyl)-D-threonine] | > 30 | > 1000
18 | Cc1cc(NC(=O)c2c(C)c(C(=O)C(=O)NC(C)(C)C(N)=O)n(C)c2C)ccc1F [Example 36, 5-(2-((1-amino-2-methyl-1-oxopropan-2-yl)amino)-2-oxoacetyl)-N-(4-fluoro-3-methylphenyl)-1,2,4-trimethyl-1H-pyrrole-3-carboxamide] | > 30 | < 50
19 | Cc1cc(NC(=O)c2c(C)c(C(=O)C(=O)NC3(C(N)=O)CC3)n(C)c2C)ccc1F [Example 37, 5-(2-((1-carbamoylcyclopropyl)amino)-2-oxoacetyl)-N-(4-fluoro-3-methylphenyl)-1,2,4-trimethyl-1H-pyrrole-3-carboxamide] | > 30 | < 50
